Test results published in patent US20250270209A1 (INTERLINE THERAPEUTICS, INC., priority 2022, published 2025).
pIC50: −log10 of the molar value.

Columns and labels:
[1] = biological target: T1, wild type LRRK2 overexpressed in recombinant HEK-293T cells (Homo sapiens, UniProt Q5S007); test: pS935 LRRK2 Cell Assay (HTRF, phospho-LRRK2 Ser935); assay type: cell-based; conditions: LRRK2 Inhibition, Table 8, 2 hours compound incubation
T1 construct: host or cells: HEK293T (transient transfection with pCMV-LRRK2 WT plasmid)
T1 sequence (Q5S007 whole entry): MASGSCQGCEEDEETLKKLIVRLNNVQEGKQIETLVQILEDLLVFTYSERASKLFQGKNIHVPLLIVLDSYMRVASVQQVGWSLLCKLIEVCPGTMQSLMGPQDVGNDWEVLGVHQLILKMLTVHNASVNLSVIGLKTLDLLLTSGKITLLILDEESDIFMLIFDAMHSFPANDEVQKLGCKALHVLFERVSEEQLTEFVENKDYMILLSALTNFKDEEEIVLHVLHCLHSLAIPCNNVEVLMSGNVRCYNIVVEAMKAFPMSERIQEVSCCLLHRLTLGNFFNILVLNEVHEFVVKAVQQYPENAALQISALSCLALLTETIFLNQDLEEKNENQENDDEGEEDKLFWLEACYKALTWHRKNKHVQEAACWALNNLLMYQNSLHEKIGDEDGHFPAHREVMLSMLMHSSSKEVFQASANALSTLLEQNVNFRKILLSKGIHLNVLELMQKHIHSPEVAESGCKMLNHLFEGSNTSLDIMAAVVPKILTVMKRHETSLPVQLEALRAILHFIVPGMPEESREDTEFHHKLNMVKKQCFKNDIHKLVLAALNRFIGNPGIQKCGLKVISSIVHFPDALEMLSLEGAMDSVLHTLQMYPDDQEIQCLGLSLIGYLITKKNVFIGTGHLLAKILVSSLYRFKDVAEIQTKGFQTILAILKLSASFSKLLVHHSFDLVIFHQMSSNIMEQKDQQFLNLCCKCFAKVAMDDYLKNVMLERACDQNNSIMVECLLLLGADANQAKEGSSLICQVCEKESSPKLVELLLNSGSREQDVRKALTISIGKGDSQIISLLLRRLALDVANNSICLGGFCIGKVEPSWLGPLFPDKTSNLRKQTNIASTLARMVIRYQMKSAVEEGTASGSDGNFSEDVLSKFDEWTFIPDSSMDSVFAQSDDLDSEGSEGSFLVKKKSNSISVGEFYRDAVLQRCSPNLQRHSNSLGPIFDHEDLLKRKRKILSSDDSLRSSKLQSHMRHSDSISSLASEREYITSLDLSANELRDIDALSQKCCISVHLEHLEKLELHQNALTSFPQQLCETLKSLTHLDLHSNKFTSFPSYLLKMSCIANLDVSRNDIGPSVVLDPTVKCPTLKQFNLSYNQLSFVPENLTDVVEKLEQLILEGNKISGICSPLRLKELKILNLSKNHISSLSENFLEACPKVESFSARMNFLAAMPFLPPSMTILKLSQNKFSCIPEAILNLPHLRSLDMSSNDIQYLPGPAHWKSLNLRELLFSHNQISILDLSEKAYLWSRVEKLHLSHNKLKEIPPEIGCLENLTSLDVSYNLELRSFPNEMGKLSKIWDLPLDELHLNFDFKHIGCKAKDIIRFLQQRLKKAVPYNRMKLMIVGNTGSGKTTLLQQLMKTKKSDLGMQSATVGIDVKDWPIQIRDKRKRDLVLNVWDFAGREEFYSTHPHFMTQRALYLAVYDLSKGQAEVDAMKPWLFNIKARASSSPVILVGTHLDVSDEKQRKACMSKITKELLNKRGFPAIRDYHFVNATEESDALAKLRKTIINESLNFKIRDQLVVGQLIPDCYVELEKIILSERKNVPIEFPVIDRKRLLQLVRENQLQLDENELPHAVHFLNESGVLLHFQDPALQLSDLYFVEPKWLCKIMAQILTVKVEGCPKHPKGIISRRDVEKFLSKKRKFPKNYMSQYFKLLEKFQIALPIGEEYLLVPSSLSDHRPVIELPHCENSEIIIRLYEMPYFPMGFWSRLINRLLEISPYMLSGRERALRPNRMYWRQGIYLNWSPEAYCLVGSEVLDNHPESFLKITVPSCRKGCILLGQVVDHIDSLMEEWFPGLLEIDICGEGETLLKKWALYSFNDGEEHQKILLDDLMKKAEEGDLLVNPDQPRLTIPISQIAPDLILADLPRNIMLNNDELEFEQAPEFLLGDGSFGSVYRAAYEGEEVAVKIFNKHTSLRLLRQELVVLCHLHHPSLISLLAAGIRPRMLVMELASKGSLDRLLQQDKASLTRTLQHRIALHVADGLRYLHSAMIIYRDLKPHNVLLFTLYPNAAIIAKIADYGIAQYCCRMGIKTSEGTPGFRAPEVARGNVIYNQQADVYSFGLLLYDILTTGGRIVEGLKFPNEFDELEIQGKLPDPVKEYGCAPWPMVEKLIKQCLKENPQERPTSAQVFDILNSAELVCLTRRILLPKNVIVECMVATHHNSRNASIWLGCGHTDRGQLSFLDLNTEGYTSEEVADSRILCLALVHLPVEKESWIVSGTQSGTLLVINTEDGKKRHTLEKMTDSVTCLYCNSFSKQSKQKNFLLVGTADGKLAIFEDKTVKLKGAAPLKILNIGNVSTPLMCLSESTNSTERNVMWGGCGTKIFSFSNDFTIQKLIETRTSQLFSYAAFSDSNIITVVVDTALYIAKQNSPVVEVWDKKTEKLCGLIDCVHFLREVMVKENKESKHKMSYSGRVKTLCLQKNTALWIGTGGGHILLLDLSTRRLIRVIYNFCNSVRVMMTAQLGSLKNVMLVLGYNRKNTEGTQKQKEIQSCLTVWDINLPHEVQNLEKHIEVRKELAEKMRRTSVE
Summary of the method: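 HEK-293T cells transiently transfected with wild-type LRRK2 for 24 h, plated overnight, then treated 2 h at 37° C with compound (top 10 μM, 3-fold, 9 doses, duplicates, 0.2% DMSO). Lysates probed overnight at 23° C by sandwich HTRF for pSer935; 665/615 nm ratio read.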

LRRK2 wild type enzyme = LRRK2 wild type enzyme (Homo sapiens, UniProt Q5S007); test: Biochemical Assay: LRRK2 TR-FRET (LanthaScreen) kinase assay with LRRKtide substrate; conditions: LRRK2 Inhibition, Table 8
Sequence of LRRK2 wild type enzyme (Q5S007 whole entry): as above
Summary of the method: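 Human wild-type LRRK2 (3 nM) preincubated 15 min with compound (11-point, 3-fold, top 10 μM), then reacted 120 min at 23 °C with 400 nM LRRKtide and 25 μM ATP, pH 8.0. Stopped with EDTA; Tb-anti-pLRRKtide TR-FRET read after 30 min.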

Structure (SMILES): C[C@@H]1C[C@H](n2c(CC(=O)N(C)C)nc3cnc4ccc(C#N)cc4c32)CCO1 [Compound 9, 2-{8-cyano-1-[(2R,4R)-2-methyloxan-4-yl]-1H-imidazo[4,5-c]quinolin-2-yl}-N,N-dimethylacetamide]
- pIC50 [1]: 6.22
- pIC50 (LRRK2 wild type enzyme): 8.20

Structure (SMILES): C[C@@H]1C[C@H](n2c([C@H]3CN(CC4CC4)C(=O)O3)nc3cnc4ccc(C#N)cc4c32)CCO1 [Compound 36, 2-[(5R)-3-(cyclopropylmethyl)-2-oxo-1,3-oxazolidin-5-yl]-1-[(2R,4R)-2-methyloxan-4-yl]-1H-imidazo[4,5-c]quinoline-8-carbonitrile]
- pIC50 [1]: 7.20
- pIC50 (LRRK2 wild type enzyme): 8.94

Structure (SMILES): Cc1noc(NC(=O)Cc2nc3cnc4ccc(C#N)cc4c3n2[C@@H]2CCO[C@H](C)C2)c1C [Compound 349, N-(3,4-dimethyl-5-isoxazolyl){3-[(2R,4R)-2-methyltetrahydro-2H-pyran-4-yl]-12-cyano-3,5,8-triazatricyclo[7.4.0.0^2,6]trideca-1(9),2(6),4,7,10,12-hexaen-4-yl}acetamide]
- pIC50 [1]: 8.13
- pIC50 (LRRK2 wild type enzyme): 9.26

Structure (SMILES): Cc1cncc(NC(=O)Cc2nc3cnc4ccc(C#N)cc4c3n2[C@@H]2CCO[C@H](C)C2)n1 [Compound 314, N-(6-methyl-2-pyrazinyl){3-[(2R,4R)-2-methyltetrahydro-2H-pyran-4-yl]-12-cyano-3,5,8-triazatricyclo[7.4.0.0^2,6]trideca-1(9),2(6),4,7,10,12-hexaen-4-yl}acetamide]
- pIC50 [1]: 8.63
- pIC50 (LRRK2 wild type enzyme): 9.27

Structure (SMILES): C[C@@H]1C[C@H](n2c(CC(=O)Nc3nccc(C(F)(F)F)n3)nc3cnc4ccc(C#N)cc4c32)CCO1 [Compound 361, N-[4-(trifluoromethyl)-2-pyrimidinyl]{3-[(2R,4R)-2-methyltetrahydro-2H-pyran-4-yl]-12-cyano-3,5,8-triazatricyclo[7.4.0.0^2,6]trideca-1(9),2(6),4,7,10,12-hexaen-4-yl}acetamide]
- pIC50 [1]: 8.37
- pIC50 (LRRK2 wild type enzyme): 9.34

Structure (SMILES): Cc1nc(C)c(NC(=O)Cc2nc3cnc4ccc(C#N)cc4c3n2[C@@H]2CCO[C@H](C)C2)c(C)n1 [Compound 253, N-(2,4,6-trimethyl-5-pyrimidinyl){3-[(2R,4R)-2-methyltetrahydro-2H-pyran-4-yl]-12-cyano-3,5,8-triazatricyclo[7.4.0.0^2,6]trideca-1,4,6,8,10,12-hexaen-4-yl}acetamide]
- pIC50 [1]: 7.59
- pIC50 (LRRK2 wild type enzyme): 9.27

Structure (SMILES): C[C@@H]1C[C@H](n2c(CC(=O)NC3(C)CCOC3)nc3cnc4ccc(Cl)cc4c32)CCO1 (stereo partly drawn) [Compound 333, N-(3-methyltetrahydro-3-furyl){3-[(2R,4R)-2-methyltetrahydro-2H-pyran-4-yl]-12-chloro-3,5,8-triazatricyclo[7.4.0.0^2,6]trideca-1(9),2(6),4,7,10,12-hexaen-4-yl}acetamide]
- pIC50 [1]: 7.51
- pIC50 (LRRK2 wild type enzyme): 8.90

Structure (SMILES): C[C@@H]1C[C@H](n2c(CC(=O)NC3(C)COC3)nc3cnc4ccc(Cl)cc4c32)CCO1 [Compound 323, N-(3-methyl-3-oxetanyl){3-[(2R,4R)-2-methyltetrahydro-2H-pyran-4-yl]-12-chloro-3,5,8-triazatricyclo[7.4.0.0^2,6]trideca-1(9),2(6),4,7,10,12-hexaen-4-yl}acetamide]
- pIC50 [1]: 7.11
- pIC50 (LRRK2 wild type enzyme): 8.57

Structure (SMILES): C[C@@H]1C[C@H](n2c(CC(=O)Nc3cccnc3Cl)nc3cnc4ccc(C#N)cc4c32)CCO1 [Compound 324, N-(2-chloro-3-pyridyl){3-[(2R,4R)-2-methyltetrahydro-2H-pyran-4-yl]-12-cyano-3,5,8-triazatricyclo[7.4.0.0^2,6]trideca-1(9),2(6),4,7,10,12-hexaen-4-yl}acetamide]
- pIC50 [1]: 8.50
- pIC50 (LRRK2 wild type enzyme): 9.27

Structure (SMILES): C[C@@H]1C[C@H](n2c(CC(=O)NCC3(CO)CC3)nc3cnc4ccc(C#N)cc4c32)CCO1 [Compound 242, N-[1-(hydroxymethyl)cyclopropyl]methyl{3-[(2R,4R)-2-methyltetrahydro-2H-pyran-4-yl]-12-cyano-3,5,8-triazatricyclo[7.4.0.0^2,6]trideca-1(9),2(6),4,7,10,12-hexaen-4-yl}acetamide]
- pIC50 [1]: 6.97
- pIC50 (LRRK2 wild type enzyme): 9.16

Structure (SMILES): C[C@@H]1C[C@H](n2c(CC(=O)NCc3ccncc3)nc3cnc4ccc(C#N)cc4c32)CCO1 [Compound 15, 2-{8-cyano-1-[(2R,4R)-2-methyloxan-4-yl]-1H-imidazo[4,5-c]quinolin-2-yl}-N-[(pyridin-4-yl)methyl]acetamide]
- pIC50 [1]: 7.80
- pIC50 (LRRK2 wild type enzyme): 9.53

Structure (SMILES): C[C@@H]1C[C@H](n2c([C@H]3CC(=O)N(c4cnn(C)c4)C3)nc3cnc4ccc(C#N)cc4c32)CCO1 [Compound 47, 2-[(3S)-1-(1-methyl-1H-pyrazol-4-yl)-5-oxopyrrolidin-3-yl]-1-[(2R,4R)-2-methyloxan-4-yl]-1H-imidazo[4,5-c]quinoline-8-carbonitrile]
- pIC50 [1]: 5.01
- pIC50 (LRRK2 wild type enzyme): 6.85

Structure (SMILES): C[C@@H]1C[C@H](n2c(CC(=O)NCC3(C)CC3)nc3cnc4ccc(C#N)cc4c32)CCO1 [Compound 265, N-(1-methylcyclopropyl)methyl{3-[(2R,4R)-2-methyltetrahydro-2H-pyran-4-yl]-12-cyano-3,5,8-triazatricyclo[7.4.0.0^2,6]trideca-1,4,6,8,10,12-hexaen-4-yl}acetamide]
- pIC50 [1]: 7.65
- pIC50 (LRRK2 wild type enzyme): 9.26

Structure (SMILES): C[C@@H]1C[C@H](n2c(CC(=O)Nc3ccc(F)nc3)nc3cnc4ccc(C#N)cc4c32)CCO1 [Compound 299, N-(6-fluoro-3-pyridyl){3-[(2R,4R)-2-methyltetrahydro-2H-pyran-4-yl]-12-cyano-3,5,8-triazatricyclo[7.4.0.0^2,6]trideca-1,4,6,8,10,12-hexaen-4-yl}acetamide]
- pIC50 [1]: 7.98
- pIC50 (LRRK2 wild type enzyme): 9.41

Structure (SMILES): Cc1cc(C)c(NC(=O)Cc2nc3cnc4ccc(C#N)cc4c3n2[C@@H]2CCO[C@H](C)C2)cn1 [Compound 236, N-(4,6-dimethyl-3-pyridyl){3-[(2R,4R)-2-methyltetrahydro-2H-pyran-4-yl]-12-cyano-3,5,8-triazatricyclo[7.4.0.0^2,6]trideca-1,4,6,8,10,12-hexaen-4-yl}acetamide]
- pIC50 [1]: 8.13
- pIC50 (LRRK2 wild type enzyme): 9.45

Structure (SMILES): C[C@@H]1C[C@H](n2c(CC(=O)N[C@H]3C[C@@H](OCc4ccn(C)n4)C3)nc3cnc4ccc(C#N)cc4c32)CCO1 [Compound 367, N-{(1s,3s)-3-[(1-methyl-3-pyrazolyl)methoxy]cyclobutyl}{3-[(2R,4R)-2-methyltetrahydro-2H-pyran-4-yl]-12-cyano-3,5,8-triazatricyclo[7.4.0.0^2,6]trideca-1,4,6,8,10,12-hexaen-4-yl}acetamide]
- pIC50 [1]: 7.02
- pIC50 (LRRK2 wild type enzyme): 9.22

Structure (SMILES): Cc1ccnc(C)c1NC(=O)Cc1nc2cnc3ccc(Cl)cc3c2n1[C@@H]1CCO[C@H](C)C1 [Compound 210, N-(2,4-dimethyl-3-pyridyl){3-[(2R,4R)-2-methyltetrahydro-2H-pyran-4-yl]-12-chloro-3,5,8-triazatricyclo[7.4.0.0^2,6]trideca-1,4,6,8,10,12-hexaen-4-yl}acetamide]
- pIC50 [1]: 8.11
- pIC50 (LRRK2 wild type enzyme): 9.42

Structure (SMILES): C[C@@H]1C[C@H](n2c(CC(=O)Nc3cccnc3C(F)(F)F)nc3cnc4ccc(C#N)cc4c32)CCO1 [Compound 285, N-[2-(trifluoromethyl)-3-pyridyl]{3-[(2R,4R)-2-methyltetrahydro-2H-pyran-4-yl]-12-cyano-3,5,8-triazatricyclo[7.4.0.0^2,6]trideca-1,4,6,8,10,12-hexaen-4-yl}acetamide]
- pIC50 [1]: 7.74
- pIC50 (LRRK2 wild type enzyme): 9.17

Structure (SMILES): C[C@@H]1C[C@H](n2c(C3CCN(C(=O)c4cccnn4)CC3)nc3cnc4ccc(C#N)cc4c32)CCO1 [Compound 117, 1-[(2R,4R)-2-methyloxan-4-yl]-2-[1-(pyridazine-3-carbonyl)piperidin-4-yl]-1H-imidazo[4,5-c]quinoline-8-carbonitrile]
- pIC50 [1]: 6.30
- pIC50 (LRRK2 wild type enzyme): 8.91

Structure (SMILES): C[C@@H]1C[C@H](n2c(CC(=O)NC3CC=CC3)nc3cnc4ccc(C#N)cc4c32)CCO1 [Compound 302, N-(3-cyclopenten-1-yl){3-[(2R,4R)-2-methyltetrahydro-2H-pyran-4-yl]-12-cyano-3,5,8-triazatricyclo[7.4.0.0^2,6]trideca-1,4,6,8,10,12-hexaen-4-yl}acetamide]
- pIC50 [1]: 8.00
- pIC50 (LRRK2 wild type enzyme): 9.32

Structure (SMILES): C[C@@H]1C[C@H](n2c(CC(=O)NC3CC3)nc3cnc4ccc(C(F)(F)F)cc4c32)CCO1 [Compound 327, N-cyclopropyl{3-[(2R,4R)-2-methyltetrahydro-2H-pyran-4-yl]-12-(trifluoromethyl)-3,5,8-triazatricyclo[7.4.0.0^2,6]trideca-1,4,6,8,10,12-hexaen-4-yl}acetamide]
- pIC50 [1]: 7.37
- pIC50 (LRRK2 wild type enzyme): 8.85

Structure (SMILES): COc1ccc(NC(=O)Cc2nc3cnc4ccc(C#N)cc4c3n2[C@@H]2CCO[C@H](C)C2)cn1 [Compound 298, N-(6-methoxy-3-pyridyl){3-[(2R,4R)-2-methyltetrahydro-2H-pyran-4-yl]-12-cyano-3,5,8-triazatricyclo[7.4.0.0^2,6]trideca-1,4,6,8,10,12-hexaen-4-yl}acetamide]
- pIC50 [1]: 8.26
- pIC50 (LRRK2 wild type enzyme): 9.46

Structure (SMILES): C[C@@H]1C[C@H](n2c([C@H]3CN(c4cnn(C)c4)C(=O)O3)nc3cnc4ccc(C#N)cc4c32)CCO1 [Compound 124, 2-[(5R)-3-(1-methyl-1H-pyrazol-4-yl)-2-oxo-1,3-oxazolidin-5-yl]-1-[(2R,4R)-2-methyloxan-4-yl]-1H-imidazo[4,5-c]quinoline-8-carbonitrile]
- pIC50 [1]: 7.29
- pIC50 (LRRK2 wild type enzyme): 9.15

Structure (SMILES): C[C@@H]1C[C@H](n2c(CNC(=O)c3cnn(C)c3)nc3cnc4ccc(C#N)cc4c32)CCO1 [Compound 20, N-({8-cyano-1-[(2R,4R)-2-methyloxan-4-yl]-1H-imidazo[4,5-c]quinolin-2-yl}methyl)-1-methyl-1H-pyrazole-4-carboxamide]
- pIC50 [1]: 6.65
- pIC50 (LRRK2 wild type enzyme): 8.74
